The results in this text go back to patent US20240209028A1, “CNP COMPOUNDS” (priority 2022, published 2024).

Starred links: 1 amine or outer side, 2 acyl side, 3 side chain; linkers in the order of their positions; H or OH if unused. Positions of bridges follow the written chain, without caps; N, C: chain ends. Non-standard residues stand in square brackets, D forms with d. Residues, ends and D or L forms follow the SMILES beside them. No end group written: not given here. *: point of attachment. C18 diacid = O=C(O)CCCCCCCCCCCCCCCCC(=O)*; γGlu = O=C(O)[C@H](CCC(=O)[*:2])N[*:1]; AEEA = NCCOCCOCC(=O)O

This assay addresses T1, human natriuretic peptide receptor 2 (hNPR2) (Homo sapiens, UniProt P20594).
T1 construct: expressed in transfected cells; host or cells: HEK293 (ATCC CRL-1573), clone 35, co-transfected with pGloSensor-42F
T1 sequence (P20594 23-1047): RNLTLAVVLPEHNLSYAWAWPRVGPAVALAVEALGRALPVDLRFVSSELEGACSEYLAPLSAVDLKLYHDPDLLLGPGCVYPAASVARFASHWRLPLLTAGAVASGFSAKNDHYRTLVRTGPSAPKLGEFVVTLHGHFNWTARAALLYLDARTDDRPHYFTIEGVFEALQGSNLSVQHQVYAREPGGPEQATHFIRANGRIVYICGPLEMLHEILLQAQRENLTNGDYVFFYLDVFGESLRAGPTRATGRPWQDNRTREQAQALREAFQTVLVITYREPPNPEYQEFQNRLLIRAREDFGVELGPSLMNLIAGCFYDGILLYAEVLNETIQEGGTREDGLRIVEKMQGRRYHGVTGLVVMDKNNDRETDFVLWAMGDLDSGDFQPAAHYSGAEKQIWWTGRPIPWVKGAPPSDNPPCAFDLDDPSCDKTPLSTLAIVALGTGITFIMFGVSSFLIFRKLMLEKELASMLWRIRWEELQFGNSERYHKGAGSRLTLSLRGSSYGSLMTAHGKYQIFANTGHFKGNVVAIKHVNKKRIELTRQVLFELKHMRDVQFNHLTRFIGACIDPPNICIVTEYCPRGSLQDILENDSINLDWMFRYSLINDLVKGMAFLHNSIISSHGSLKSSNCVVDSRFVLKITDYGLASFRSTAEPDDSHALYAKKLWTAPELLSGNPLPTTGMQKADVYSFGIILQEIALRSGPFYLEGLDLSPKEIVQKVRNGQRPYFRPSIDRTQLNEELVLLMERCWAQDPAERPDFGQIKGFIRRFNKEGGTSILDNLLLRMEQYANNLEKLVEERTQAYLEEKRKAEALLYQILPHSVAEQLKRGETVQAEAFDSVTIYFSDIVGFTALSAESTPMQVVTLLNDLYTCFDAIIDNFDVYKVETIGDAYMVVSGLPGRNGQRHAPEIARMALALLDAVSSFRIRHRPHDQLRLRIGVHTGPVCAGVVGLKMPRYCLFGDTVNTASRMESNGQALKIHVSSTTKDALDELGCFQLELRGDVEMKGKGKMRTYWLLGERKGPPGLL
Nature of the assay: In vitro hNPR2 activity assay (cGMP GloSensor reporter, HEK293). The class given is cell-based. To be noted: potency relative to CNP22 (0065). A digest of the protocol: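 Potency is the EC50 from a four-parameter logistic fit, also expressed relative to the in-plate CNP22 control (×100), with at least two replicates. Compounds (ten concentrations, […], HSA-free diluent with 1% OVA, 0.01% Tween20) were incubated 30 min at 37 °C on HEK293 cells co-expressing hNPR2 and a GloSensor cGMP luciferase. Luminescence detected with Bright-Glo.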
As to `CC[C@H](C)[C@@H]1NC(=O)[C@H](CCCNC(=N)N)NC(=O)[C@H](CC(=O)O)NC(=O)[C@H](CC(C)C)NC(=O)[C@@H]2CCCN2C(=O)[C@H](CC(C)C)NC(=O)CNC(=O)[C@H](Cc2ccccc2)NC(=O)[C@@H](NC(=O)CNC(=O)[C@H](CO)NC(=O)[C@H](CO)NC(=O)[C@H](CC(C)C)NC(=O)CNC(=O)[C@@H](NC(=O)[C@H](Cc2c[nH]cn2)NC(=O)[C@H](CCC(N)=O)NC(=O)[C@H](C)NC(=O)CNC(=O)[C@H](Cc2c[nH]cn2)NC(=O)[C@H](Cc2ccc(O)cc2)NC(=O)[C@H](CCCCN)NC(=O)[C@H](CCCNC(=N)N)NC(=O)[C@H](C)NC(=O)COCCOCCNC(=O)COCCOCCNC(=O)CC[C@H](NC(=O)CCCCCCCCCCCCCCCCC(=O)O)C(=O)O)[C@@H](C)O)CSSC[C@@H](C(=O)O)NC(=O)CNC(=O)[C@H](CC(C)C)NC(=O)CNC(=O)[C@H](CO)NC(=O)[C@H](CC(C)C)NC(=O)[C@H](CO)NC(=O)CNC1=O` [compound 1350] ({C18 diacid-γGlu-AEEA-AEEA}-ARKYHGAQHTGLSSGCFGLPLDRIGSLSGLGC-OH; disulfide 16-32), the “hNPR2 0% HSA. [EC50% rel CNP]” value amounted to 41.0%. Consider “{C18 diacid}-EEEEE[AEEA][AEEA][AEEA][AEEA]ARKYKGAQKKGLSQGCFGLPLDRIGSLSGLGC (disulfide 25-41) [compound 1475]”, for which the “hNPR2 0% HSA. [EC50% rel CNP]” value is 46.5%. As for `CC[C@H](C)[C@@H]1NC(=O)[C@H](CCCNC(=N)N)NC(=O)[C@H](CC(=O)O)NC(=O)[C@H](CC(C)C)NC(=O)[C@@H]2CCCN2C(=O)[C@H](CC(C)C)NC(=O)CNC(=O)[C@H](Cc2ccccc2)NC(=O)[C@@H](NC(=O)CNC(=O)[C@H](CCC(N)=O)NC(=O)[C@H](CO)NC(=O)[C@H](CO)NC(=O)CNC(=O)[C@H](CCCCN)NC(=O)[C@H](CCCCN)NC(=O)[C@H](CCC(N)=O)NC(=O)[C@H](C)NC(=O)CNC(=O)[C@H](CCCCN)NC(=O)[C@H](Cc2ccc(O)cc2)NC(=O)[C@H](CCCCN)NC(=O)[C@H](CCCNC(=N)N)NC(=O)[C@H](C)NC(=O)[C@@H]2CCCN2C(=O)[C@H](C)NC(=O)[C@H](CCC(N)=O)NC(=O)CNC(=O)COCCOCCNC(=O)COCCOCCNC(=O)CC[C@H](NC(=O)CC[C@H](NC(=O)CC[C@H](NC(=O)CC[C@H](NC(=O)CCCCCCCCCCCCCCCCC(=O)O)C(=O)O)C(=O)O)C(=O)O)C(=O)O)CSSC[C@@H](C(=O)O)NC(=O)CNC(=O)[C@H](CC(C)C)NC(=O)CNC(=O)[C@H](CO)NC(=O)[C@H](CC(C)C)NC(=O)[C@H](CO)NC(=O)CNC1=O` [compound 1459] ({C18 diacid-γGlu-γGlu-γGlu-γGlu-AEEA-AEEA}-GQAPARKYKGAQKKGSSQGCFGLPLDRIGSLSGLGC-OH; disulfide 20-36), the figure is 76.1%; as for `CC[C@H](C)[C@@H]1NC(=O)[C@H](CCCNC(=N)N)NC(=O)[C@H](CC(=O)O)NC(=O)[C@H](CC(C)C)NC(=O)[C@@H]2CCCN2C(=O)[C@H](CC(C)C)NC(=O)CNC(=O)[C@H](Cc2ccccc2)NC(=O)[C@@H](NC(=O)CNC(=O)[C@H](CCC(N)=O)NC(=O)[C@H](CO)NC(=O)[C@H](CC(C)C)NC(=O)CNC(=O)[C@H](CCCCN)NC(=O)[C@H](CCCCN)NC(=O)[C@H](CCC(N)=O)NC(=O)[C@H](C)NC(=O)CNC(=O)[C@H](CCC(=O)O)NC(=O)[C@H](Cc2ccc(O)cc2)NC(=O)COCCOCCNC(=O)COCCOCCNC(=O)COCCOCCNC(=O)COCCOCCNC(=O)CC[C@H](NC(=O)CCCCCCCCCCCCCCCCC(=O)O)C(=O)O)CSSC[C@@H](C(=O)O)NC(=O)CNC(=O)[C@H](CC(C)C)NC(=O)CNC(=O)[C@H](CO)NC(=O)[C@H](CC(C)C)NC(=O)[C@H](CO)NC(=O)CNC1=O` [compound 1393] ({C18 diacid-γGlu-AEEA-AEEA-AEEA-AEEA}-YEGAQKKGLSQGCFGLPLDRIGSLSGLGC-OH; disulfide 13-29), 27.8%. In the case of `CC[C@H](C)[C@@H]1NC(=O)[C@H](CCCNC(=N)N)NC(=O)[C@H](CC(=O)O)NC(=O)[C@H](CC(C)C)NC(=O)[C@@H]2CCCN2C(=O)[C@H](CC(C)C)NC(=O)CNC(=O)[C@H](Cc2ccccc2)NC(=O)[C@@H](NC(=O)CNC(=O)[C@H](CCC(N)=O)NC(=O)[C@H](CO)NC(=O)[C@H](CO)NC(=O)CNC(=O)[C@H](CCCCN)NC(=O)[C@H](CCCCN)NC(=O)[C@H](CCC(N)=O)NC(=O)[C@H](C)NC(=O)CNC(=O)[C@H](CCCCN)NC(=O)[C@H](Cc2ccc(O)cc2)NC(=O)[C@H](Cc2c[nH]cn2)NC(=O)[C@H](CCCNC(=N)N)NC(=O)[C@H](C)NC(=O)[C@H](CCC(N)=O)NC(=O)[C@@H]2CCCN2C(=O)[C@H](Cc2c[nH]cn2)NC(=O)[C@H](CCC(=O)O)NC(=O)[C@H](CCC(N)=O)NC(=O)COCCOCCNC(=O)COCCOCCNC(=O)CC[C@H](NC(=O)CC[C@H](NC(=O)CC[C@H](NC(=O)CC[C@H](NC(=O)CCCCCCCCCCCCCCCCC(=O)O)C(=O)O)C(=O)O)C(=O)O)C(=O)O)CSSC[C@@H](C(=O)O)NC(=O)CNC(=O)[C@H](CC(C)C)NC(=O)CNC(=O)[C@H](CO)NC(=O)[C@H](CC(C)C)NC(=O)[C@H](CO)NC(=O)CNC1=O` [compound 1398] ({C18 diacid-γGlu-γGlu-γGlu-γGlu-AEEA-AEEA}-QEHPQARHYKGAQKKGSSQGCFGLPLDRIGSLSGLGC-OH; disulfide 21-37), the “hNPR2 0% HSA. [EC50% rel CNP]” value was determined as 55.6%. As for `CC[C@H](C)[C@@H]1NC(=O)[C@H](CCCNC(=N)N)NC(=O)[C@H](CC(=O)O)NC(=O)[C@H](CC(C)C)NC(=O)[C@@H]2CCCN2C(=O)[C@H](CC(C)C)NC(=O)CNC(=O)[C@H](Cc2ccccc2)NC(=O)[C@@H](NC(=O)CNC(=O)[C@H](CO)NC(=O)[C@H](CO)NC(=O)[C@@H](NC(=O)CNC(=O)[C@@H](NC(=O)[C@H](CCCCN)NC(=O)[C@H](CCC(N)=O)NC(=O)[C@H](C)NC(=O)CNC(=O)[C@H](Cc2c[nH]cn2)NC(=O)[C@H](Cc2ccc(O)cc2)NC(=O)[C@H](CCCCN)NC(=O)[C@H](CCCNC(=N)N)NC(=O)[C@H](C)NC(=O)COCCOCCNC(=O)COCCOCCNC(=O)CC[C@H](NC(=O)CC[C@H](NC(=O)CC[C@H](NC(=O)CCCCCCCCCCCCCCCCC(=O)O)C(=O)O)C(=O)O)C(=O)O)[C@@H](C)O)C(C)C)CSSC[C@@H](C(=O)O)NC(=O)CNC(=O)[C@H](CC(C)C)NC(=O)CNC(=O)[C@H](CO)NC(=O)[C@H](CC(C)C)NC(=O)[C@H](CO)NC(=O)CNC1=O` [compound 1450] ({C18 diacid-γGlu-γGlu-γGlu-AEEA-AEEA}-ARKYHGAQKTGVSSGCFGLPLDRIGSLSGLGC-OH; disulfide 16-32), the figure is 84.2%; as for `CC[C@H](C)[C@@H]1NC(=O)[C@H](CCCNC(=N)N)NC(=O)[C@H](CC(=O)O)NC(=O)[C@H](CC(C)C)NC(=O)[C@@H]2CCCN2C(=O)[C@H](CC(C)C)NC(=O)CNC(=O)[C@H](Cc2ccccc2)NC(=O)[C@@H](NC(=O)CNC(=O)[C@H](CO)NC(=O)[C@H](CO)NC(=O)[C@@H](NC(=O)CNC(=O)[C@@H](NC(=O)[C@H](CCCCN)NC(=O)[C@H](CCC(N)=O)NC(=O)[C@H](C)NC(=O)CNC(=O)[C@H](Cc2c[nH]cn2)NC(=O)[C@H](CCC(=O)O)NC(=O)[C@H](CCCCN)NC(=O)[C@H](CCCNC(=N)N)NC(=O)[C@H](C)NC(=O)COCCOCCNC(=O)COCCOCCNC(=O)CC[C@H](NC(=O)CCCCCCCCCCCCCCCCC(=O)O)C(=O)O)[C@@H](C)O)C(C)C)CSSC[C@@H](C(=O)O)NC(=O)CNC(=O)[C@H](CC(C)C)NC(=O)CNC(=O)[C@H](CO)NC(=O)[C@H](CC(C)C)NC(=O)[C@H](CO)NC(=O)CNC1=O` [compound 1359] ({C18 diacid-γGlu-AEEA-AEEA}-ARKEHGAQKTGVSSGCFGLPLDRIGSLSGLGC-OH; disulfide 16-32; C-terminus assumed), 28.2%. Next, `CC[C@H](C)[C@@H]1NC(=O)[C@H](CCCNC(=N)N)NC(=O)[C@H](CC(=O)O)NC(=O)[C@H](CC(C)C)NC(=O)[C@@H]2CCCN2C(=O)[C@H](CC(C)C)NC(=O)CNC(=O)[C@H](Cc2ccccc2)NC(=O)[C@@H](NC(=O)CNC(=O)[C@H](CO)NC(=O)[C@H](CO)NC(=O)[C@@H](NC(=O)CNC(=O)[C@@H](NC(=O)[C@H](CCCCN)NC(=O)[C@H](CCC(N)=O)NC(=O)[C@H](C)NC(=O)CNC(=O)[C@H](Cc2c[nH]cn2)NC(=O)[C@H](CCC(=O)O)NC(=O)COCCOCCNC(=O)COCCOCCNC(=O)CC[C@H](NC(=O)CCCCCCCCCCCCCCCCC(=O)O)C(=O)O)[C@@H](C)O)C(C)C)CSSC[C@@H](C(=O)O)NC(=O)CNC(=O)[C@H](CC(C)C)NC(=O)CNC(=O)[C@H](CO)NC(=O)[C@H](CC(C)C)NC(=O)[C@H](CO)NC(=O)CNC1=O` [compound 1312] ({C18 diacid-γGlu-AEEA-AEEA}-EHGAQKTGVSSGCFGLPLDRIGSLSGLGC-OH; disulfide 13-29): 9.0%.
